Source: patent publication US20190336486A1, “METHODS FOR TREATING CANCER AND METABOLIC SYNDROME” (GLAX LLC, priority 2018, published 2019)

Columns and labels:
Format in all cases: cell-based
glioblastoma cell lines = test: Cell proliferation of glioblastoma cell lines (FIG. 7)
brain CSCs [1] = test: Cell proliferation of brain CSCs (FIG. 7)
glioblastoma cells = test: Colony formation by glioblastoma cells (FIG. 8)
brain CSCs [2] = test: Colony formation by brain CSCs (FIG. 8)
lung cancer cells (A549) = test: Cell proliferation of lung cancer cells (FIG. 9)
[3] = tested on: human normal lung epithelial cells (Beas 2B); test: Cell proliferation of normal lung epithelial cells (FIG. 9)
lung cancer cells = test: Colony formation by lung cancer cells (FIG. 10)
colorectal CSCs = test: Cell proliferation of colorectal CSCs (FIG. 11)
breast cancer cells = test: Cell proliferation of breast cancer cells (FIG. 12)
prostate cancer cells = test: Cell proliferation of prostate cancer cells (FIG. 13)

Compound: Nc1nc(CC(=O)Nc2ccc(CCNC[C@H](O)c3ccccc3)cc2)cs1 [Mirabegron]
- cell proliferation (glioblastoma cell lines): inhibits cell proliferation
- cell proliferation (brain CSCs [1]): inhibits cell proliferation
- colony formation (glioblastoma cells): inhibits colony formation
- colony formation (brain CSCs [2]): inhibits colony formation
- cell proliferation (lung cancer cells (A549)): inhibits cell proliferation
- cell proliferation [3]: has no effect
- colony formation (lung cancer cells): inhibits colony formation
- cell proliferation (colorectal CSCs): inhibits cell proliferation
- cell proliferation (breast cancer cells): inhibits cell proliferation
- cell proliferation (prostate cancer cells): inhibits cell proliferation
